Source: patent publication US4713378A, “Penem derivatives” (Farmitalia Carlo Erba S.p.A., priority 1984, dated 1987)
Values after ≈ are worked out from the molar mass of the structure shown. Read-outs that look alike come from different tables or passages of the source.

How the values were obtained:
Format in all cases: cell-based
[1] = test system: Klebsiella aerogenes 1082E (β-lact.+); assay: antibacterial in vitro activity (MIC), Klebsiella aerogenes 1082E (β-lact.+)
From the text: (§1) Comparison between the antibacterial in vitro activity
(§2) (MIC, μg/ml) of compound "5" and two reference drugs: […]

[2] = test system: Streptococcus pyogenes ATCC 12384; assay: antibacterial in vitro activity (MIC), Streptococcus pyogenes ATCC 12384; details: ATCC12384; Streptococcus pyogenes ATCC 12384, in vitro
From the text: as §1, §2

[3] = test system: Staphylococcus aureus Smith; assay: antibacterial in vitro activity (MIC), Staphylococcus aureus Smith
From the text: as §1, §2

[4] = test system: Shigella flexneri ATCC 11836; assay: antibacterial in vitro activity (MIC), Shigella flexneri ATCC 11836; details: ATCC11836; Shigella flexneri ATCC 11836, in vitro
From the text: as §1, §2

[5] = test system: Salmonella typhimurium ATCC 14028; assay: antibacterial in vitro activity (MIC), Salmonella typhimurium ATCC 14028; details: Salmonella enterica; Salmonella typhimurium ATCC 14028, in vitro
From the text: as §1, §2

[6] = test system: Pseudomonas aeruginosa ATCC 19660; assay: antibacterial in vitro activity (MIC), Pseudomonas aeruginosa ATCC 19660; details: ATCC19660; Pseudomonas aeruginosa ATCC 19660, in vitro
From the text: as §1, §2

[7] = test system: Enterobacter cloacae P 99 (β-lact.+); assay: antibacterial in vitro activity (MIC), Enterobacter cloacae P 99 (β-lact.+)
From the text: as §1, §2

[8] = test system: Escherichia coli B Cef. R (β-lact.+); assay: antibacterial in vitro activity (MIC), Escherichia coli B Cef. R (β-lact.+)
From the text: as §1, §2

[9] = test system: Escherichia coli 026:B6 Cef R; assay: antibacterial in vitro activity (MIC), Escherichia coli 026:B6 Cef R
From the text: as §1, §2

[10] = test system: Staphylococcus aureus 209 P; assay: antibacterial in vitro activity (MIC), Staphylococcus aureus 209 P
From the text: as §1, §2

[11] = test system: Proteus morganii ATCC 25830; assay: antibacterial in vitro activity (MIC), Proteus morganii ATCC 25830; details: Morganella morganii, ATCC25830; Proteus morganii ATCC 25830, in vitro
From the text: as §1, §2

[12] = test system: Escherichia coli 026:B6; assay: antibacterial in vitro activity (MIC), Escherichia coli 026:B6; details: Escherichia coli 026:B6, in vitro
From the text: as §1, §2

[13] = test system: Escherichia coli B; assay: antibacterial in vitro activity (MIC), Escherichia coli B
From the text: as §1, §2

[14] = test system: Enterobacter cloacae 1321 E; assay: antibacterial in vitro activity (MIC), Enterobacter cloacae 1321 E
From the text: as §1, §2

[15] = test system: Proteus mirabilis FI 7474; assay: antibacterial in vitro activity (MIC), Proteus mirabilis FI 7474; details: FI7474; Proteus mirabilis FI 7474, in vitro
From the text: as §1, §2

[16] = test system: Serratia marcescens ATCC 2902; assay: antibacterial in vitro activity (MIC), Serratia marcescens ATCC 2902; details: ATCC2902; Serratia marcescens ATCC 2902, in vitro
From the text: as §1, §2

[17] = test system: Citrobacter freundii ATCC 8090; assay: antibacterial in vitro activity (MIC), Citrobacter freundii ATCC 8090; details: ATCC8090; Citrobacter freundii ATCC 8090, in vitro
From the text: as §1, §2

[18] = Enterobacter cloacae P 99 (β-lact.+), in vitro, read-out: MIC
[19] = Staphylococcus aureus 209 P, in vitro, read-out: MIC

CO/N=C(\C(=O)N[C@@H]1C(=O)N2C(C(=O)O)=C(COC(C)=O)CS[C@H]12)c1csc(N)n1 [Cefotaxime]
MIC [1]: 3.12 µg/mL (≈ 6.85 µM) | MIC [2]: 0.78 µg/mL (≈ 1.71 µM) | MIC [3]: 0.78 µg/mL (≈ 1.71 µM) | MIC [4]: 0.023 µg/mL (≈ 0.0505 µM) | MIC [5]: 0.045 µg/mL (≈ 0.0988 µM) | MIC [6]: 12 µg/mL (≈ 26.3 µM) | MIC [7, 18]: > 100 µg/mL | MIC [8]: 0.19 µg/mL (≈ 0.417 µM) | MIC [9]: 1.56 µg/mL (≈ 3.43 µM) | MIC ([10]; Staphylococcus aureus, 209P): 1.56 µg/mL (≈ 3.43 µM) | MIC [11]: 0.011 µg/mL (≈ 0.0242 µM) | MIC [12]: 0.78 µg/mL (≈ 1.71 µM) | MIC [13]: 0.011 µg/mL (≈ 0.0242 µM)

C[C@@H](O)[C@H]1C(=O)N2C(C(=O)[O-])=C(C[N+]3(C)CCCC3)S[C@H]12 [Compound 5, (5R,6S)-6-[(1R)-hydroxyethyl]-2-[1-(1-methylpyrrolidinio)]-methylpenem-3-carboxylate]
MIC [1]: 0.045 µg/mL (≈ 0.144 µM) | MIC [2]: < 0.005 µg/mL | MIC [14]: 0.045 µg/mL (≈ 0.144 µM) | MIC [3]: < 0.005 µg/mL | MIC [4]: 0.045 µg/mL (≈ 0.144 µM) | MIC [5]: 0.045 µg/mL (≈ 0.144 µM) | MIC [6]: 25 µg/mL (≈ 80 µM) | MIC [7, 18]: 0.045 µg/mL (≈ 0.144 µM) | MIC [15]: 0.19 µg/mL (≈ 0.608 µM) | MIC [8]: 0.045 µg/mL (≈ 0.144 µM) | MIC [10, 19]: < 0.005 µg/mL | MIC [11]: 0.38 µg/mL (≈ 1.22 µM) | MIC [12]: 0.005 µg/mL (≈ 0.016 µM) | MIC [16]: 0.78 µg/mL (≈ 2.5 µM) | MIC [13]: 0.045 µg/mL (≈ 0.144 µM) | MIC [17]: 0.09 µg/mL (≈ 0.288 µM)

CC(=O)OCC1=C(C(=O)O)N2C(=O)[C@H]([C@@H](C)O)[C@H]2S1 [FCE 21420]
MIC [1]: 0.78 µg/mL (≈ 2.71 µM) | MIC [2]: 0.045 µg/mL (≈ 0.157 µM) | MIC [3]: 0.023 µg/mL (≈ 0.0801 µM) | MIC [4]: 0.39 µg/mL (≈ 1.36 µM) | MIC [5]: 0.39 µg/mL (≈ 1.36 µM) | MIC [6]: > 50 µg/mL | MIC ([7]; Enterobacter cloacae): 3.12 µg/mL (≈ 10.9 µM) | MIC [8]: 0.39 µg/mL (≈ 1.36 µM) | MIC [9]: 3.12 µg/mL (≈ 10.9 µM) | MIC [10, 19]: 0.045 µg/mL (≈ 0.157 µM) | MIC [11]: 0.78 µg/mL (≈ 2.71 µM) | MIC [16]: 3.1 µg/mL (≈ 10.8 µM) | MIC [17]: 0.78 µg/mL (≈ 2.71 µM)
